US7879795B2, “Enhancement of tigecycline potency using efflux pump inhibitors” (Mpex Pharmaceuticals, Inc., priority 2004, dated 2011)
Where two headings read alike, the source gives them in different places. Blank lines part the entries; values can stand above or below the compound they belong to.

How the values were obtained:
[1] = test system: Citrobacter freundii 13; assay: Antibiotic MIC with fixed concentration of compound 21, Citrobacter freundii 13; format: cell-based
Protocol: (§1) To further characterize the clinical potential of tigecycline/EPI combinations, the microbiological activity of tigecycline in combination with compound 21 was investigated using clinical isolates of P. aeruginosa and other gram-negative bacteria. In several experiments, described below, the impact of a fixed concentration of compound 21 (2.5 μg/ml) on susceptibility to tigecycline was determined.
(§2) The impact of compound 21 on the activity of tigecycline against representative members of Enterobacteriacaea was also tested.

[2] = test system: Klebsiella pneumonia 73; assay: Antibiotic MIC with fixed concentration of compound 21, Klebsiella pneumonia 73; format: cell-based
Protocol: as §1, §2

[3] = test system: Klebsiella pneumonia 79; assay: Antibiotic MIC with fixed concentration of compound 21, Klebsiella pneumonia 79; format: cell-based
Protocol: as §1, §2

[4] = test system: Enterobacter aerogenes 19; assay: Antibiotic MIC with fixed concentration of compound 21, Enterobacter aerogenes 19; format: cell-based
[5] = test system: Enterobacter cloacae 25; assay: Antibiotic MIC with fixed concentration of compound 21, Enterobacter cloacae 25; format: cell-based
[6] = In vitro stability in rat serum and tissue homogenates (LC/MS/MS); format: in vitro ADME; settings: in words
Protocol: To test the stability of the compounds in vitro, samples were prepared and analyzed by LC/MS/MS according to the following procedure.
Homogenization: A chunk of fresh tissue was weighed and mixed with saline at 1:1 ratio (w/v) in a 12×75 mm polypropylene round bottom tube. The mixture was homogenized with a Polytron homogenizer (on ice, 3×10 seconds with 10 second intervals at the setting of 7).
Incubation and TCA-precipitation: An appropriate amount of a tissue homogenate was pre-warmed at 37° C. for 2 minutes in an Eppendorf tube. The compound to be tested was added to the tube to a final concentration of 2 μg/ml, mixed, and a 60 μl aliquot was immediately taken (as 0 hour sample) and mixed with 120 μl of 4% TCA (trichloroacetic acid) in an Eppendorf tube. The temperature of the tube containing the rest of the tissue sample was returned to 37° C. for incubation. Later, samples were taken as scheduled and mixed with TCA as described above. Plasma and lavage samples were directly incubated with the compounds without addition of saline and homogenization.
LC/MS/MS sample vial preparation: TCA-precipitated sample tubes were vortexed for 30 seconds, centrifuged in a microfuge at top speed (13.2 k rpm) for 5 minutes. The supernatant was collected. The pH was neutralized to about 3.5 with ammonium acetate buffer. The sample (45 μl) was transferred to a glass LC/MS/MS vial (Kimble, 11 mm, 1.5 ml) and 5 μl of an internal standard was added to a final concentration of 500 ng/ml. LC/MS/MS analysis was performed in Chemistry Department of San Diego State University.
LC/MS/MS protocol: Thermo-Finnigan TSQ Quantum triple sector mass spectrometer with electrospray (ESI) ionization was used to analyze the samples. The operation conditions were: Mobile phase of pH 3.00 water/formic acid: acetonitrile-methanol (45%:5%:50% by volume); Thermo-Keystone Betabasic C-18 column (2.1 mm×50 mm) operated at 0.100 mL/min.
Many proteases responsible for degrading EPI compounds are located in […]. Lysozymes typically have an acidic pH (about 4.8-5), whereas the pH in tissue homogenates that were prepared was higher (kidney, pH 6.8; liver, pH 6.6; and lung, pH 7.5). To test the effect of tissue homogenates closer to physiological conditions, the pH was lowered to about 6 by adding acetic acid to the tissue homogenates and compound stability was tested. FIG. 2 depicts the stability of compounds 1 and 3 at different pH. […] The pH-dependent degradation of compound 3 was especially evident in kidney homogenates.
FIG. 4 is a bar graph depicting the stability of compound 3 in the supernatant and pellet of kidney tissue homogenates.

[7] = Tissue levels in rat six-hour after 8.4 mg/kg IV bolus; format: in vivo; settings: rat kidney, liver and lung; 8.4 mg/kg IV bolus; in words
Protocol: Tissue levels of compounds 1, 2, 3 and 4 were evaluated in kidney, liver and lung six-hour after 8.4 mg/kg IV bolus administration. FIG. 13 depicts the levels as a function of time.
Compound 67, which is the expected metabolite of proteolytic intracellular degradation of compound 3, was detected in rat tissues after IV infusion, confirming the tissue-specific degradation of compound 3 (Tables 9A, B).

[8] = test system: P. aeruginosa, PAM1723, overexpressing the MexAB-OprM efflux pump; assay: Levofloxacin potentiation checkerboard assay (broth microdilution); format: cell-based
Protocol: Stock solution was stored at −80° C.
The checkerboard assay was performed in microtiter plates. […] EPIs were diluted in the y axis, each row containing an equal concentration of an EPI. The result of these manipulations was that each well of the microtiter plate contains a unique combination of concentrations of the two agents. The assay was performed in MHB with a final bacterial inoculum of 5×10^5 CFU/ml (from an early-log phase culture). Microtiter plates were incubated during 20 h at 35° C. and were read using a microtiterplate reader (Molecular Devices) at 650 nm as well as visual observation using a microtiter plate-reading mirror.

[9] = Tissue levels after 2-hour IV infusion in rats; format: in vivo, rat; settings: for concentration at 6 h: 4 h after end of 2-hour IV infusion; for concentration at 6 h / concentration at 2 h: 10 mg/kg; for 2 h/4 h Ratio: Table 7, 2 h and 6 h; for concentration at 2 h: end of 2-hour IV infusion
Protocol: Levels of EPIs in various tissues were evaluated after 2-hour IV infusion in rats. The rats received 10 mg/kg IV infusion through FVC. Animals were divided into 2 groups: group 1 was sacrificed immediately after the end of infusion and group 2, 2 h or 4 h after the end of infusion. Tissues from each animal were collected, homogenized and compounds were extracted. Tissues were mixed with saline at 1:1 ratio (v/w) in 12×75 mm polypropylene round bottom tubes. The mixtures were homogenized with a Polytron homogenizer (on ice, 3×10-15 seconds with 30 seconds intervals at the setting of 7). 50 μl of homogenized tissue were immediately transferred to an Eppendorf tube and 2-volumes of 4% TCA were added. After vortexing for 30 seconds, the tubes were centrifuged in a microfuge at top speed (13.2 k rpm) for 5 minutes. The supernatant was collected, and 45 μl of the supernatant was transferred to a glass LC/MS/MS vial (Kimble, 11 mm, 1.5 ml) for analysis, which allowed determination of tissue levels of EPIs at the end of the infusion and 2 h or 4 h later.

[10] = Rat serum pharmacokinetics after 2-hour IV infusion; format: in vivo
Protocol: Rat serum pharmacokinetics of compounds 1, 3, 7, and 21 was evaluated after 2-hour IV infusion of 1 mg/ml EPI solution in 0.9% saline. Total infused dose was 10 mg/kg. FIG. 12 depicts the serum concentrations as a function of time. A two-compartment model was used to fit the data and calculate PK parameters.

[11] = test system: PAM1723; settings: for stability in rat serum: summary of Table 4, in words
Protocol: Stability in rat and human serum was also evaluated using a bioassay. 320 μg/ml of the test compound was treated with 50% serum for 4 hours.
Bioassays as described in Example 62 and Example 65 were used to evaluate the stability of various compounds in serum and rabbit kidney homogenates.

[12] = test system: strain PAM1723 of P. aeruginosa; format: in vitro ADME
Protocol: Stability of compounds was also evaluated using a bioassay. The test compound at 320 μg/ml was treated with rabbit kidney supernatant for 0, 0.5, 1 and 2 hours.

Azi (MIC) ([1]; azithromycin alone): 8 µg/mL | Azi (MIC) ([2]; azithromycin alone): 16 µg/mL | Azi (MIC) ([3]; azithromycin alone): 64 µg/mL | Azi (MIC) ([4]; azithromycin alone): 32 µg/mL | Azi (MIC) ([5]; azithromycin alone): 16 µg/mL
Compound: CC[C@H]1OC(=O)[C@H](C)[C@@H](O[C@H]2C[C@@](C)(OC)[C@@H](O)[C@H](C)O2)[C@H](C)[C@@H](O[C@@H]2O[C@H](C)C[C@H](N(C)C)[C@H]2O)[C@](C)(O)C[C@@H](C)CN(C)[C@H](C)[C@@H](O)[C@]1(C)O [Azithromycin, reference compound]

Compound: NCCC[C@@H](N)C(=O)N[C@@H](CCc1ccccc1)C(=O)Nc1cnc2ccccc2c1 [Compound 4, 2-(R),5-Diamino-pentanoic acid [3-phenyl-1-(S)-(quinolin-3-ylcarbamoyl)-propyl]-amide]
stability in supernatant of rat kidney tissue homogenates [6]: neither compound 1 nor compound 4 show any instability | tissue levels at 6 hours after IV injection [7]: relatively high levels | Antibiotic (levofloxacin) MIC in the presence of EPI ([8]; EPI 0 μg/ml (levofloxacin alone)): 2 µg/mL | Antibiotic (levofloxacin) MIC in the presence of EPI ([8]; EPI 1.25 μg/ml): 2 µg/mL | Antibiotic (levofloxacin) MIC in the presence of EPI ([8]; EPI 5 μg/ml): 2 µg/mL | Antibiotic (levofloxacin) MIC in the presence of EPI ([8]; EPI 10 μg/ml): 0.5 µg/mL | Antibiotic (levofloxacin) MIC in the presence of EPI ([8]; EPI 20 μg/ml): 0.06 µg/mL | Antibiotic (levofloxacin) MIC in the presence of EPI ([8]; EPI 40 μg/ml): 0.06 µg/mL | Antibiotic (levofloxacin) MIC in the presence of EPI ([8]; EPI 80 μg/ml): 0.03 µg/mL | Antibiotic (levofloxacin) MIC in the presence of EPI ([8]; EPI […]): 2 µg/mL | MPC8 ([8]; EPI concentration necessary to increase susceptibility to levofloxacin eight-fold): 20 µg/mL

Compound: NCCC[C@H](N)C(=O)N[C@H](CCc1ccccc1)C(=O)Nc1ccc2ncccc2c1 [Compound 7, 2-(S),5-Diamino-pentanoic acid [3-phenyl-1-(R)-(quinolin-6-ylcarbamoyl)-propyl]-amide]
concentration at 6 h ([9]; rat kidney): 960 ng/mL | 2 h/4 h Ratio ([9]; rat kidney): 57.37 | concentration at 2 h ([9]; rat kidney): 55400 ng/mL | concentration at 6 h ([9]; rat liver): 270 ng/mL | 2 h/4 h Ratio ([9]; rat liver): 29.85 | concentration at 2 h ([9]; rat liver): 7960 ng/mL | concentration at 6 h ([9]; rat lung): 3170 ng/mL | 2 h/4 h Ratio ([9]; rat lung): 4.11 | concentration at 2 h ([9]; rat lung): 13000 ng/mL | tissue levels and clearance from tissues after 2-hour IV infusion ([9]; rat, in words): cleared from tissues relatively fast | serum PK profile after 2-hour IV infusion ([10]; 10 mg/kg, in words): best serum PK profile | clearance ([10]; serum, 2-hour IV infusion, total dose 10 mg/kg, two-compartment model): 6.5 mL/min/kg

Compound: NCCC[C@H](N)C(=O)N[C@@H](CCc1ccc(F)cc1)C(=O)Nc1cnc2ccccc2c1 [Compound 9, 2-(S),5-Diamino-pentanoic acid [3-(4-fluoro-phenyl)-1-(S)-(quinolin-3-ylcarbamoyl)-propyl]amide]
stability in rat serum [11]: unstable in rat serum

Compound: CN(C(=O)[C@@H](CCc1ccccc1)NC(=O)[C@@H](N)CCCN)c1cnc2ccccc2c1 [Compound 18, 2-(S),5-Diamino-pentanoic acid [1-(R)-(methyl-quinolin-3-yl-carbamoyl)-3-phenyl-propyl]amide]
stability in rat serum [11]: unstable in rat serum

Compound: NCCC[C@H](N)C(=O)N[C@H](CCc1ccccc1)C(=O)Nc1cnc2ccccc2n1 [Compound 19, 2-(S),5-Diamino-pentanoic acid [3-phenyl-1-(R)-(quinoxalin-2-ylcarbamoyl)-propyl]-amide]
stability in rat serum [11]: unstable in rat serum

Compound: NCCC[C@H](N)C(=O)N[C@H](CCc1ccccc1)C(=O)Nc1cccc(-c2ccccc2)c1 [Compound 26]
EPI MPC8 after incubation (h) with rabbit kidney supernatant at 37° C. ([12]; 0 h): 80 µg/mL | EPI MPC8 after incubation (h) with rabbit kidney supernatant at 37° C. ([12]; 0.5 h): >80 µg/mL | EPI MPC8 after incubation (h) with rabbit kidney supernatant at 37° C. ([12]; 1 h): >80 µg/mL | EPI MPC8 after incubation (h) with rabbit kidney supernatant at 37° C. ([12]; 2 h): >80 µg/mL | EPI MPC8, Saline (2 hours) ([12]; saline control of rabbit kidney supernatant bioassay, 37° C.): 2.5 µg/mL | EPI MPC8 after 4 hours at 37° C., Frosen Human serum ([11]; Table 4, human serum): 2.5 µg/mL | EPI MPC8 after 4 hours at 37° C., Frozen Rat serum ([11]; Table 4, rat serum): 2.5 µg/mL | EPI MPC8 after 4 hours at 37° C., Saline ([11]; Table 4, saline): 2.5 µg/mL

Compound: NCCC[C@H](N)C(=O)N[C@H](CCc1ccccc1)C(=O)Nc1ccc2cccnc2c1 [Compound 28, 2-(S),5-Diamino-pentanoic acid [3-phenyl-1-(R)-(quinolin-7-ylcarbamoyl)-propyl]-amide]
stability in rat serum [11]: unstable in rat serum

Compound: NCCC[C@H](N)C(=O)N[C@H](CCc1ccccc1)C(=O)Nc1ncc(Cl)cc1Cl [Compound 36, 2-(S),5-Diamino-pentanoic acid [1-(R)-(3,5-dichloro-pyridin-2-ylcarbamoyl)-3-phenyl-propyl]amide]
stability in rat serum [11]: unstable in rat serum

Compound: NCCC[C@H](N)C(=O)N[C@H](CCc1ccccc1)C(=O)Nc1cc2ccccc2nn1 [Compound 39, 2-(S),5-Diamino-pentanoic acid [1-(R)-(cinnolin-3-ylcarbamoyl)-3-phenyl-propyl]-amide]
stability in rat serum [11]: unstable in rat serum

Levo (MIC) ([1]; levofloxacin alone): 64 µg/mL | Levo (MIC) ([2]; levofloxacin alone): 64 µg/mL | Levo (MIC) ([3]; levofloxacin alone): 64 µg/mL | Levo (MIC) ([4]; levofloxacin alone): 128 µg/mL | Levo (MIC) ([5]; levofloxacin alone): 2 µg/mL
Compound: C[C@H]1COc2c(N3CCN(C)CC3)c(F)cc3c(=O)c(C(=O)O)cn1c23 [Levofloxacin, reference compound]

Compound: L-phenylalanine-L-ornithine-α-naphtylamide [MC-207110, reference compound]
EPI MPC8 after 4 hours at 37° C., Frozen Rat serum ([11]; Table 3, 50% rat serum): >80
